According to the supplement of paper PMC10733146:

Experiments:
Assay in all cases: viability relative to DMSO control (fraction); higher = less drug effect (more viable cells)
Conditions in all cases: 48 h
[1] = test system: primary FL patient cells (S087)
Procedure, shortened: (§1)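 In 384-well plates with compounds pre-plated at five concentrations (one well per concentration), primary mononuclear tumour cells were plated at 4 × 10^4 cells per well. The cells came from blood or bone marrow by Ficoll isolation or from processed lymph node, and were used fresh or cryopreserved. Culture ran for 48 h at 37 °C and 5% CO2 in RPMI-1640 containing penicillin/streptomycin, L-glutamine and human serum. Viability was read as CellTiter-Glo luminescence, normalised to the median of 16 inner DMSO wells.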

[2] = test system: primary AML patient cells (S009)
Procedure, shortened: as §1

[3] = test system: primary MCL patient cells (S063)
Procedure, shortened: as §1

[4] = test system: primary AML patient cells (S079)
Procedure, shortened: as §1

[5] = test system: primary ALL patient cells (S048)
Procedure, shortened: as §1

[6] = test system: primary MCL patient cells (S068)
Procedure, shortened: as §1

[7] = test system: primary AML patient cells (S091)
Procedure, shortened: as §1

[8] = test system: primary CLL patient cells (S031)
Procedure, shortened: as §1

[9] = test system: primary AML patient cells (S006)
Procedure, shortened: as §1

[10] = test system: primary FL patient cells (S022)
Procedure, shortened: as §1

[11] = test system: primary MCL patient cells (S041)
Procedure, shortened: as §1

[12] = test system: primary AML patient cells (S072)
Procedure, shortened: as §1

[13] = test system: primary AML patient cells (S037)
Procedure, shortened: as §1

[14] = test system: primary AML patient cells (S056)
Procedure, shortened: as §1

[15] = test system: primary AML patient cells (S089)
Procedure, shortened: as §1

[16] = test system: primary MCL patient cells (S053)
Procedure, shortened: as §1

[17] = test system: primary AML patient cells (S012)
Procedure, shortened: as §1

[18] = test system: primary T-PLL patient cells (S008)
Procedure, shortened: as §1

[19] = test system: primary DLBCL patient cells (S082)
Procedure, shortened: as §1

`CC#CC(=O)N1CCC[C@H]1c1nc(-c2ccc(C(=O)Nc3ccccn3)cc2)c2c(N)nccn12` [Acalabrutinib (ACP-196)] gave a viability ([1]; 0.008 µM) of 1.08, a viability ([1]; 0.04 µM) of 1.03 and a viability ([1]; 0.2 µM) of 1.07. The viability ([1]; 1 µM) was 0.994, the viability ([1]; 5 µM) was 1.04 and the viability ([2]; 0.008 µM) was 1.19. For the same compound, the viability ([2]; 0.04 µM) was 1.11, the viability ([2]; 0.2 µM) was 1.16 and the viability ([2]; 1 µM) was 1.09. It also gave a viability ([2]; 5 µM) of 1.12, a viability ([3]; 0.008 µM) of 0.697 and a viability ([3]; 0.04 µM) of 0.328. It also gave a viability ([3]; 0.2 µM) of 0.276, a viability ([3]; 1 µM) of 0.246 and a viability ([3]; 5 µM) of 0.262. The viability ([4]; 0.008 µM) was 0.948, the viability ([4]; 0.04 µM) was 0.906 and the viability ([4]; 0.2 µM) was 0.859. The viability ([4]; 1 µM) was 1.11, the viability ([4]; 5 µM) was 0.965 and the viability ([5]; 0.008 µM) was 1.05. The viability ([5]; 0.04 µM) was 0.955, the viability ([5]; 0.2 µM) was 0.975 and the viability ([5]; 1 µM) was 0.962. It also gave a viability ([5]; 5 µM) of 1.03, a viability ([6]; 0.008 µM) of 0.878 and a viability ([6]; 0.04 µM) of 0.805. For the same compound, the viability ([6]; 0.2 µM) was 0.788, the viability ([6]; 1 µM) was 0.767 and the viability ([6]; 5 µM) was 0.785. It also gave a viability ([7]; 0.008 µM) of 0.945, a viability ([7]; 0.04 µM) of 1.06 and a viability ([7]; 0.2 µM) of 0.979. It also gave a viability ([7]; 1 µM) of 1.01, a viability ([7]; 5 µM) of 1.07 and a viability ([8]; 0.008 µM) of 0.877. The viability ([8]; 0.04 µM) was 0.817, the viability ([8]; 0.2 µM) was 0.742 and the viability ([8]; 1 µM) was 0.722. For the same compound, the viability ([8]; 5 µM) was 0.713, the viability ([9]; 0.008 µM) was 1.08 and the viability ([9]; 0.04 µM) was 1.1. It also gave a viability ([9]; 0.2 µM) of 1.09, a viability ([9]; 1 µM) of 1.08 and a viability ([9]; 5 µM) of 1.04. For the same compound, the viability ([10]; 0.008 µM) was 1.1, the viability ([10]; 0.04 µM) was 1.12 and the viability ([10]; 0.2 µM) was 1.11. For the same compound, the viability ([10]; 1 µM) was 1.09, the viability ([10]; 5 µM) was 1.05 and the viability ([11]; 0.008 µM) was 1. The viability ([11]; 0.04 µM) was 1, the viability ([11]; 0.2 µM) was 0.859 and the viability ([11]; 1 µM) was 0.899. For the same compound, the viability ([11]; 5 µM) was 0.855, the viability ([12]; 0.008 µM) was 0.995 and the viability ([12]; 0.04 µM) was 0.971. The viability ([12]; 0.2 µM) was 0.989, the viability ([12]; 1 µM) was 0.941 and the viability ([12]; 5 µM) was 0.971. The viability ([13]; 0.008 µM) was 1.07, the viability ([13]; 0.04 µM) was 1.62 and the viability ([13]; 0.2 µM) was 1.07. For the same compound, the viability ([13]; 1 µM) was 1.22, the viability ([13]; 5 µM) was 1.05 and the viability ([14]; 0.008 µM) was 1.04. For the same compound, the viability ([14]; 0.04 µM) was 1.55, the viability ([14]; 0.2 µM) was 1.02 and the viability ([14]; 1 µM) was 0.929. For the same compound, the viability ([14]; 5 µM) was 0.766, the viability ([15]; 0.008 µM) was 0.975 and the viability ([15]; 0.04 µM) was 0.996. For the same compound, the viability ([15]; 0.2 µM) was 0.91, the viability ([15]; 1 µM) was 0.679 and the viability ([15]; 5 µM) was 0.629. The viability ([16]; 0.008 µM) was 0.711, the viability ([16]; 0.04 µM) was 0.636 and the viability ([16]; 0.2 µM) was 0.656. The viability ([16]; 1 µM) was 0.587, the viability ([16]; 5 µM) was 0.66 and the viability ([17]; 0.008 µM) was 1.08. The viability ([17]; 0.04 µM) was 1.16, the viability ([17]; 0.2 µM) was 1.14 and the viability ([17]; 1 µM) was 1.16. For the same compound, the viability ([17]; 5 µM) was 1.21, the viability ([18]; 0.008 µM) was 1.11 and the viability ([18]; 0.04 µM) was 1.01. The viability ([18]; 0.2 µM) was 1.08, the viability ([18]; 1 µM) was 0.989 and the viability ([18]; 5 µM) was 1.13. It also gave a viability ([19]; 0.008 µM) of 0.804, a viability ([19]; 0.04 µM) of 0.675 and a viability ([19]; 0.2 µM) of 0.559. For the same compound, the viability ([19]; 1 µM) was 0.462 and the viability ([19]; 5 µM) was 0.447.
